pIC50: −log10 of the molar value.
Assay: Inhibitory concentration against oxoglutarate oxygenase was determined

- pIC50: 3.92
SMILES: O=C(O)CCC(S)C(=O)O (stereo unspecified)

From ChEMBL document CHEMBL1136153, “2-oxoglutarate analogue inhibitors of HIF prolyl hydroxylase” (Bioorg Med Chem Lett, 2003)
